According to ChEMBL document CHEMBL1201862, “PubChem BioAssay data set” (2004):
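Dose response: 5 concentrations. Exposure: 48 h. Format: 96-well plates. Endpoint: linear interpolation; highest concentration if not reached. GI50 = concentration required for 50% inhibition of growth.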 Active and inactive are the calls of the source. Rule as the data show it: active = GI50 up to about 1.1 µM and inactive = higher.

What was measured:
Test in all cases: growth of human tumour cells (NCI), 48 h
[1] = tested on: HOP-62
[2] = tested on: UO-31
[3] = tested on: OVCAR-5
[4] = tested on: HCC 2998
[5] = tested on: Malme-3M
[6] = tested on: HL-60
[7] = tested on: SNB-19
[8] = tested on: SF-539
[9] = tested on: HOP-92
[10] = tested on: COLO 205
[11] = tested on: HT-29
[12] = tested on: OVCAR-8
[13] = tested on: SK-MEL-28
[14] = tested on: MCF7
[15] = tested on: OVCAR-3
[16] = tested on: UACC-257
[17] = tested on: RPMI-8226
[18] = tested on: K562
[19] = tested on: UACC-62
[20] = tested on: SNB-75

Measured: GI50

C=Cc1cnc([N+](=O)[O-])n1C
inactive: [1] 92 µM | [2] 27.4 µM | [3] > 100 µM | [4] 42.7 µM | [5] 38.1 µM | [6] 48.6 µM | [7] > 100 µM | [8] 74.1 µM | [9] 35.8 µM | [10] 46.5 µM | [11] > 100 µM | [12] > 100 µM | [13] 72.1 µM | [14] 59 µM | [15] 69.7 µM | [16] > 100 µM | [17] 40.1 µM

CNc1ccc2c(c1)[C@@]1(C)c3ccccc3[C@@H](C2)N1C
inactive: [1] 42.1 µM | [2] 28.1 µM | [3] 25.9 µM | [4] 20.1 µM | [5] 28 µM | [6] 14.7 µM | [18] 23.2 µM | [7] 37.8 µM | [9] 27.1 µM | [11] 18.8 µM | [14] 29.7 µM | [15] 20.1 µM | [16] 23.4 µM | [19] 16.4 µM | [17] 15.7 µM

CCOC(=O)c1ccc(C(=O)n2ccnc2)[nH]1
inactive: [1] > 100 µM | [2] > 100 µM | [3] > 100 µM | [4] > 100 µM | [5] > 100 µM | [6] > 100 µM | [18] > 100 µM | [7] > 100 µM | [10] > 100 µM | [20] 63.5 µM | [12] > 100 µM | [13] > 100 µM | [14] > 100 µM | [15] > 100 µM | [16] > 100 µM | [19] > 100 µM | [17] > 100 µM

O=P1(O)c2ccccc2CS(=O)(=O)Cc2ccccc21
inactive: [1] > 100 µM | [2] > 100 µM | [3] > 100 µM | [4] > 100 µM | [6] > 100 µM | [18] > 100 µM | [7] > 100 µM | [8] > 100 µM | [9] > 100 µM | [10] > 100 µM | [11] > 100 µM | [12] > 100 µM | [13] > 100 µM | [14] > 100 µM | [15] > 100 µM | [16] > 100 µM | [19] > 100 µM

CC(C)=CCN1c2ccc(Cl)cc2NC(=O)CC1C (stereo not given)
inactive: [1] 23.5 µM | [2] 31.6 µM | [3] 59.4 µM | [4] 44.4 µM | [5] 20.3 µM | [6] 13 µM | [18] 65.6 µM | [7] 36.9 µM | [8] 20.5 µM | [9] 14.1 µM | [10] 21.6 µM | [11] 17.5 µM | [12] 19.1 µM | [13] 41.9 µM | [14] 21.4 µM | [15] 18.3 µM | [16] 21.2 µM | [17] 22.1 µM

CN1CN(c2ccccc2)C2(CCN(CCCC(=O)c3cccs3)CC2)C1=O
inactive: [1] 19.3 µM | [2] 33 µM | [3] 35.9 µM | [4] 19.5 µM | [5] 54.1 µM | [6] 52.8 µM | [18] 38.5 µM | [7] 47.5 µM | [8] 23.8 µM | [10] 17.3 µM | [20] > 100 µM | [11] 21.2 µM | [12] 55.8 µM | [13] > 100 µM | [14] 25.2 µM | [15] 37.2 µM | [16] 29 µM | [19] > 100 µM | [17] 29.8 µM

CCOC(=O)c1csc(NC(=O)CCN2CCCCC2)n1
inactive: [1] > 100 µM | [2] > 100 µM | [3] > 100 µM | [4] > 100 µM | [5] > 100 µM | [6] > 100 µM | [18] > 100 µM | [7] > 100 µM | [8] > 100 µM | [9] > 100 µM | [10] > 100 µM | [11] > 100 µM | [12] > 100 µM | [13] > 100 µM | [14] > 100 µM | [15] > 100 µM | [16] > 100 µM | [19] > 100 µM | [17] > 100 µM

CCN(CCO)C(=O)C1(c2ccccc2)CCCCC1
inactive: [1] > 10 µM | [2] > 10 µM | [3] > 10 µM | [4] > 10 µM | [5] > 10 µM | [6] > 10 µM | [18] > 10 µM | [7] > 10 µM | [8] > 10 µM | [10] > 10 µM | [20] > 10 µM | [11] > 10 µM | [12] > 10 µM | [13] > 10 µM | [14] > 10 µM | [15] > 10 µM | [19] > 10 µM | [17] > 10 µM
